We go through 36 compounds from patent US9957271B2, “Substituted bicyclic aza-heterocycles and analogues as sirtuin modulators” (GlaxoSmithKline, LLC, priority 2012, dated 2018).

Molecules are shown by their SMILES. Read-outs that look alike come from different tables or passages of the source.

This experiment addresses T1, SIRT1 (Homo sapiens, UniProt Q96EB6).
T1 sequence (Q96EB6 1-747): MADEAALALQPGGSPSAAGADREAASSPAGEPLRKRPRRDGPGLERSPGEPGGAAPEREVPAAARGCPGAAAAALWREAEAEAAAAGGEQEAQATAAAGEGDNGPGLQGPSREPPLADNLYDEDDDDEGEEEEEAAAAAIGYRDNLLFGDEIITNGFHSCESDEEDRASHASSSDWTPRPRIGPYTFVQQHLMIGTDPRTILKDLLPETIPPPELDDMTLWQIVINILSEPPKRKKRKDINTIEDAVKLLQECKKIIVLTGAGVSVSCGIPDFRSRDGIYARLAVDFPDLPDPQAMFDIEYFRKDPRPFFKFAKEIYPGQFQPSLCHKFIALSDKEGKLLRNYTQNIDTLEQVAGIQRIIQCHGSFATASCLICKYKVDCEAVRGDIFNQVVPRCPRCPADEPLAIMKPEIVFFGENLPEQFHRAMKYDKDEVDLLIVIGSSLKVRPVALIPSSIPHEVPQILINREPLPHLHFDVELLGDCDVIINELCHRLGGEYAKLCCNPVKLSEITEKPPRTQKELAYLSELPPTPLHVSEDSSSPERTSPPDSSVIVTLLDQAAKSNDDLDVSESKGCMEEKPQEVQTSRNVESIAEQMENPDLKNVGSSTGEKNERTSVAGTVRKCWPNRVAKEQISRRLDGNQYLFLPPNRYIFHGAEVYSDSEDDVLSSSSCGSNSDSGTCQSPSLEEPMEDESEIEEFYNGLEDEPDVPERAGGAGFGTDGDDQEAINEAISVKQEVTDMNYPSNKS
Put plainly: TAMRA based mass spectrometry assay of SIRT1 activity. The settings on record: for TAMRA EC1.5 / TAMRA EC1.5 (μM): concentration giving 150% activation of SIRT1; for Emax: percent maximum fold activation, read-out: TAMRA % Fold Act. In kind it is biochemical. A digest of the protocol: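 Deacetylation of a biotinylated, TAMRA-tagged p53-based peptide (0.5 μM) by 10 nM His-tagged SIRT1 with 120 μM βNAD+, 25 °C for 25 min, pH 8 Tris-acetate buffer, across a compound concentration range. Quenched by formic acid and read by mass spec as product peptide or OAADPR; activity relative to DMSO reactions, nicotinamide defining maximal inhibition.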

As for `Cc1nn2ccc(-c3ccccc3C(F)(F)F)nc2c1C(=O)Nc1cccc(CN2CCOCC2)n1` [Compound 550], for the setting “TAMRA peptide substrate”, the “TAMRA EC1.5” value is given as “A (EC1.5<1 μM)” and the Emax was at least 350%.

Turning to `O=C(Nc1cccc(OC[C@H](O)CO)n1)c1cnc2ccc(-c3ccccc3C(F)(F)F)nn12` [Compound 553], where the note is “TAMRA peptide substrate”, the “TAMRA EC1.5” value was “A (EC1.5<1 μM)” and the Emax is at least 350%.

In the case of `O=C(Nc1cccc(OC[C@@H](O)CO)n1)c1cnc2ccc(-c3ccccc3C(F)(F)F)nn12` [Compound 554], under “TAMRA peptide substrate”, the “TAMRA EC1.5” value is reported as “A (EC1.5<1 μM)” and the Emax was at least 350%.

Consider `O=C(Nc1cncc(OC[C@@H](O)CO)n1)c1cnc2ccc(-c3ccccc3C(F)(F)F)nn12` [Compound 556, (S)-N-(6-(2,3-dihydroxypropoxy)pyrazin-2-yl)-6-(2-(trifluoromethyl)phenyl)imidazo[1,2-b]pyridazine-3-carboxamide], for which, for the setting “TAMRA peptide substrate”, the “TAMRA EC1.5” value is reported as “A (EC1.5<1 μM)” and the Emax is at least 350%.

Take `Cc1cc(NC(=O)c2cnc3ccc(-c4ccccc4C(F)(F)F)nn23)cc(OC[C@H](O)CO)n1` [Compound 557]: under “TAMRA peptide substrate”, the “TAMRA EC1.5” value is “A (EC1.5<1 μM)” and the Emax was at least 350%.

With `Cc1nn2ccc(-c3ccccc3C(F)(F)F)nc2c1C(=O)Nc1ccncc1` [Compound 560], for the setting “TAMRA peptide substrate”, the “TAMRA EC1.5” value is listed as “A (EC1.5<1 μM)” and the Emax was at least 350%.

Take `Cc1nc2c(C)cc(-c3ccccc3C(F)(F)F)nn2c1C(=O)Nc1cccc(N2CC3(COC3)C2)n1` [Compound 562]: for the setting “TAMRA peptide substrate”, the “TAMRA EC1.5” value is reported as “A (EC1.5<1 μM)” and the Emax is at least 350%.

Consider `O=C(Nc1cnn2ccc(-c3ccccc3C(F)(F)F)nc12)c1nccs1` [Compound 563], for which, under “TAMRA peptide substrate”, the “TAMRA EC1.5” value is “A (EC1.5<1 μM)” and the Emax was at least 350%.

As to `O=C(Nc1cnc2ccc(N3CC[C@H](F)C3)nn12)c1ccccn1` [Compound 564], for the setting “TAMRA peptide substrate”, the “TAMRA EC1.5” value is “B (EC1.5 1-25 μM)” and the Emax was below 350%.

Consider `Cc1nn2ccc(-c3ccccc3C(F)(F)F)nc2c1NC(=O)c1ccccn1` [Compound 567, N-(2-methyl-5-(2-(trifluoromethyl)phenyl)pyrazolo[1,5-a]pyrimidin-3-yl)picolinamide], for which, under “TAMRA peptide substrate”, the “TAMRA EC1.5” value is reported as “B (EC1.5 1-25 μM)” and the Emax was below 350%.

With `Cc1nn2ccc(-c3ccccc3C(F)(F)F)nc2c1NC(=O)c1ccncc1` [Compound 569], under “TAMRA peptide substrate”, the “TAMRA EC1.5” value is “C (EC1.5>25 μM)” and the Emax was below 350%.

Take `Cc1nn2ccc(-c3ccccc3C(F)(F)F)nc2c1NC(=O)c1ncccn1` [Compound 570]: where the note is “TAMRA peptide substrate”, the “TAMRA EC1.5” value is recorded as “B (EC1.5 1-25 μM)” and the Emax was below 350%.

Turning to `Cc1nn2ccc(-c3ccccc3C(F)(F)F)nc2c1NC(=O)c1cccc(CN2CCOCC2)n1` [Compound 573], where the note is “TAMRA peptide substrate”, the “TAMRA EC1.5” value was “B (EC1.5 1-25 μM)” and the Emax is below 350%.

`Cc1nn2ccc(-c3ccccc3C(F)(F)F)nc2c1NC(=O)c1cccc(O)n1` [Compound 575]: for the setting “TAMRA peptide substrate”, the “TAMRA EC1.5” value is listed as “C (EC1.5>25 μM)” and the Emax was below 350%.

Consider `COc1cccc(C(=O)Nc2c(C)nn3ccc(-c4ccccc4C(F)(F)F)nc23)n1` [Compound 576], for which, where the note is “TAMRA peptide substrate”, the “TAMRA EC1.5” value is reported as “C (EC1.5>25 μM)” and the Emax is below 350%.

With `Cc1cc(C)nc(NC(=O)c2cnc3ccc(N4CCCC(C(F)(F)F)C4)nn23)c1` (stereo not drawn) [Compound 579], under “TAMRA peptide substrate”, the “TAMRA EC1.5” value is on record as “B (EC1.5 1-25 μM)” and the Emax is below 350%.

On to `O=C(Nc1cnn2ccc(-c3ccccc3OC(F)(F)F)nc12)c1ccccn1` [Compound 581], for which, under “TAMRA peptide substrate”, the “TAMRA EC1.5” value is listed as “A (EC1.5<1 μM)” and the Emax is at least 350%.

Take `O=C(Nc1cnn2ccc(-c3ccccc3OC(F)(F)F)nc12)c1cccnc1` [Compound 582]: for the setting “TAMRA peptide substrate”, the “TAMRA EC1.5” value is listed as “B (EC1.5 1-25 μM)” and the Emax is below 350%.

As for `O=C(Nc1cnn2ccc(-c3ccccc3OC(F)(F)F)nc12)c1ccncn1` [Compound 585], where the note is “TAMRA peptide substrate”, the “TAMRA EC1.5” value is recorded as “B (EC1.5 1-25 μM)” and the Emax was at least 350%.

As for `Cc1cc(-c2ccccc2C(F)(F)F)nn2c(C(=O)Nc3ccnc(OC4CCOCC4)n3)cnc12` [Compound 587], where the note is “TAMRA peptide substrate”, the “TAMRA EC1.5” value is on record as “A (EC1.5<1 μM)” and the Emax is at least 350%.

On to `Cc1nc(NC(=O)c2cnc3c(C)cc(-c4ccccc4C(F)(F)F)nn23)sc1C` [Compound 588], for which, where the note is “TAMRA peptide substrate”, the “TAMRA EC1.5” value is reported as “B (EC1.5 1-25 μM)” and the Emax is below 350%.

Regarding `O=C(Nc1ccnc(N2CC3(CCO3)C2)n1)c1cnc2ccc(-c3ccccc3C(F)(F)F)nn12` [Compound 592], for the setting “TAMRA peptide substrate”, the “TAMRA EC1.5” value is “A (EC1.5<1 μM)” and the Emax was at least 350%.

Regarding `Cc1nc2c(C)cc(-c3ccccc3C(F)(F)F)nn2c1C(=O)Nc1ccnc(OC2CCOCC2)n1` [Compound 593], for the setting “TAMRA peptide substrate”, the “TAMRA EC1.5” value was “A (EC1.5<1 μM)” and the Emax is at least 350%.

Turning to `COc1nccnc1NC(=O)c1cnc2c(C)cc(-c3ccccc3C(F)(F)F)nn12` [Compound 595], where the note is “TAMRA peptide substrate”, the “TAMRA EC1.5” value was “A (EC1.5<1 μM)” and the Emax was below 350%.

Consider `CCOc1nccc(NC(=O)c2cnc3c(C)cc(-c4ccccc4C(F)(F)F)nn23)n1` [Compound 596], for which, under “TAMRA peptide substrate”, the “TAMRA EC1.5” value is on record as “A (EC1.5<1 μM)” and the Emax is at least 350%.

Take `Cc1cc(-c2ccccc2C(F)(F)F)nn2c(C(=O)Nc3ccnc(O[C@H]4CCOC4)n3)cnc12` [Compound 601]: under “TAMRA assay”, the “TAMRA EC1.5 (μM)” value is “A (EC1.5<1 μM)” and the Emax is at least 350%.

Regarding `COc1cc(NC(=O)c2c(C)nc3ccc(-c4ccccc4C(F)(F)F)nn23)ncn1` [Compound 602], for the setting “TAMRA assay”, the “TAMRA EC1.5 (μM)” value is recorded as “A (EC1.5<1 μM)” and the Emax was at least 350%.

For `Cc1cc(C)nc(NC(=O)c2cnn3ccc(-c4ccccc4OC(F)(F)F)nc23)c1` [Compound 605], where the note is “TAMRA assay”, the “TAMRA EC1.5 (μM)” value was “A (EC1.5<1 μM)” and the Emax was at least 350%.

With `O=C(Nc1nccs1)c1cnn2ccc(-c3ccccc3OC(F)(F)F)nc12` [Compound 607], for the setting “TAMRA assay”, the “TAMRA EC1.5 (μM)” value is on record as “B (EC1.5 1-25 μM)” and the Emax was below 350%.

For `Cc1ccc(NC(=O)c2cnn3ccc(-c4ccccc4OC(F)(F)F)nc23)nc1` [Compound 608], where the note is “TAMRA assay”, the “TAMRA EC1.5 (μM)” value was “C (EC1.5>25 μM)” and the Emax is below 350%.

`Cc1cc(NC(=O)c2cnn3ccc(-c4ccccc4OC(F)(F)F)nc23)cc(C)n1` [Compound 611]: for the setting “TAMRA assay”, the “TAMRA EC1.5 (μM)” value is reported as “A (EC1.5<1 μM)” and the Emax was at least 350%.

As to `Cc1nccc(NC(=O)c2cnn3ccc(-c4ccccc4OC(F)(F)F)nc23)c1C` [Compound 613], under “TAMRA assay”, the “TAMRA EC1.5 (μM)” value is given as “A (EC1.5<1 μM)” and the Emax is below 350%.

As for `Cc1nc(NC(=O)c2cnn3ccc(-c4ccccc4OC(F)(F)F)nc23)sc1C` [Compound 614], for the setting “TAMRA assay”, the “TAMRA EC1.5 (μM)” value is reported as “A (EC1.5<1 μM)” and the Emax is at least 350%.

As for `Cc1cccc(NC(=O)c2cnn3ccc(-c4ccccc4OC(F)(F)F)nc23)n1` [Compound 617], for the setting “TAMRA assay”, the “TAMRA EC1.5 (μM)” value was “A (EC1.5<1 μM)” and the Emax is at least 350%.

On to `Cc1cc(NC(=O)c2cnn3ccc(-c4ccccc4C(F)(F)F)nc23)ccn1` [Compound 619], for which, for the setting “TAMRA assay”, the “TAMRA EC1.5 (μM)” value was “A (EC1.5<1 μM)” and the Emax was at least 350%.

As for `Cc1nccc(NC(=O)c2cnn3ccc(-c4ccccc4C(F)(F)F)nc23)c1C` [Compound 620], where the note is “TAMRA assay”, the “TAMRA EC1.5 (μM)” value is reported as “B (EC1.5 1-25 μM)” and the Emax is below 350%.
